Three molecules from BindingDB's records for doi:10.1016/j.bmcl.2017.11.013 (Csir-Indian Institute of Integrative Medicine, 2017) can be followed below.

pEC50: −log10 of the molar value.

The nature of data set [1]: Inhibition of human CYP1A1 transfected in HEK293 cells assessed as protection against CYP1A1 mediated B[a]P toxicity by measuring B[a]P EC50 at 20 uM by MTT assay (Rvb =1.2+/- 0.3 uM). A general note: Tetrazolium dyes change colour on reduction, which living cells bring about.
A short description of data set [2]: Inhibition of human CYP1B1 expressed in MDA-MB-468 cells assessed as potentiation of cisplatin-induced cytotoxicity by measuring cisplatin EC50 at 20 uM (Rvb = 6.70+/- 0.7 uM).
Data set [3] can be described thus: Inhibition of human CYP1B1 expressed in MDA-MB-468 cells assessed as potentiation of cisplatin-induced cytotoxicity by measuring cisplatin EC50 at 6.6 uM (Rvb = 6.70+/- 0.7 uM).

Turning to `CC(C)=CCc1cc(C2CC(=O)c3ccc(O)c(CC=C(C)C)c3O2)ccc1O` (stereo not given), the pEC50 (commonly −log10 of the EC50, conventionally taken in molar units) is 5.64 in data set [1] and 5.28 in data set [2].

In the case of `O=c1cc(-c2ccccc2)oc2c1ccc1ccccc12`, the pEC50 in data set [2] is 5.29.

As for `O=c1c(O)c(-c2ccc(O)c(O)c2)oc2cc(O)cc(O)c12` [2-(3,4-dihydroxyphenyl)-3,5,7-trihydroxy-chromone;hydrate], the negative-log EC50 (pEC50) in data set [1] was 5.06; in data set [3] it was 5.96.
